Data published in patent publication US8192962B2, “Processes for detecting toxic substances” (Daikin Industries, Ltd., priority 2001, dated 2012).

Test system: Genes belonging to other category
Assay: DNA chip mRNA expression in yeast, genes belonging to other category (Table 9)
Assay type: cell-based, Saccharomyces cerevisiae S288C
Outline: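 Measured as treated-to-untreated fluorescence ratio on a full-genome yeast DNA chip. Cells (S288C, YPD, 25° C.) were exposed in log phase for two hours to one chemical, dosed to curb growth without killing.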

For C=CC=O [(14), acrolein], the “The level of expressed mRNA in the presence of chemical substance/The level of expressed mRNA in the absence of chemical substance” value (yeast gene YIR024C) was 2.6, the “The level of expressed mRNA in the presence of chemical substance/The level of expressed mRNA in the absence of chemical substance” value (yeast gene YIR039C) was 1.9 and the “The level of expressed mRNA in the presence of chemical substance/The level of expressed mRNA in the absence of chemical substance” value (yeast gene YJL030W) was 2.1. The “The level of expressed mRNA in the presence of chemical substance/The level of expressed mRNA in the absence of chemical substance” value (yeast gene YJL035C) was 1.6, the “The level of expressed mRNA in the presence of chemical substance/The level of expressed mRNA in the absence of chemical substance” value (yeast gene YJL053W) was 1.3 and the “The level of expressed mRNA in the presence of chemical substance/The level of expressed mRNA in the absence of chemical substance” value (yeast gene YJL073W) was 1.1. The “The level of expressed mRNA in the presence of chemical substance/The level of expressed mRNA in the absence of chemical substance” value (yeast gene YJL089W) was 1.8, the “The level of expressed mRNA in the presence of chemical substance/The level of expressed mRNA in the absence of chemical substance” value (yeast gene YJL116C) was 2.6 and the “The level of expressed mRNA in the presence of chemical substance/The level of expressed mRNA in the absence of chemical substance” value (yeast gene YJL146W) was 1.5. For the same compound, the “The level of expressed mRNA in the presence of chemical substance/The level of expressed mRNA in the absence of chemical substance” value (yeast gene YJL164C) was 0.9, the “The level of expressed mRNA in the presence of chemical substance/The level of expressed mRNA in the absence of chemical substance” value (yeast gene YJL210W) was 0.9 and the “The level of expressed mRNA in the presence of chemical substance/The level of expressed mRNA in the absence of chemical substance” value (yeast gene YJR004C) was 0.7. For the same compound, the “The level of expressed mRNA in the presence of chemical substance/The level of expressed mRNA in the absence of chemical substance” value (yeast gene YJR086W) was 2.2, the “The level of expressed mRNA in the presence of chemical substance/The level of expressed mRNA in the absence of chemical substance” value (yeast gene YJR099W) was 2.1 and the “The level of expressed mRNA in the presence of chemical substance/The level of expressed mRNA in the absence of chemical substance” value (yeast gene YKL008C) was 0.8. The “The level of expressed mRNA in the presence of chemical substance/The level of expressed mRNA in the absence of chemical substance” value (yeast gene YKL013C) was 1.4, the “The level of expressed mRNA in the presence of chemical substance/The level of expressed mRNA in the absence of chemical substance” value (yeast gene YKL039W) was 0.8 and the “The level of expressed mRNA in the presence of chemical substance/The level of expressed mRNA in the absence of chemical substance” value (yeast gene YKL041W) was 1.3. The “The level of expressed mRNA in the presence of chemical substance/The level of expressed mRNA in the absence of chemical substance” value (yeast gene YKL070W) was 2.2, the “The level of expressed mRNA in the presence of chemical substance/The level of expressed mRNA in the absence of chemical substance” value (yeast gene YKL096W) was 0.5 and the “The level of expressed mRNA in the presence of chemical substance/The level of expressed mRNA in the absence of chemical substance” value (yeast gene YKL103C) was 2.0. For the same compound, the “The level of expressed mRNA in the presence of chemical substance/The level of expressed mRNA in the absence of chemical substance” value (yeast gene YKL117W) was 1.6, the “The level of expressed mRNA in the presence of chemical substance/The level of expressed mRNA in the absence of chemical substance” value (yeast gene YKL139W) was 1.0 and the “The level of expressed mRNA in the presence of chemical substance/The level of expressed mRNA in the absence of chemical substance” value (yeast gene YKL165C) was 0.8. The “The level of expressed mRNA in the presence of chemical substance/The level of expressed mRNA in the absence of chemical substance” value (yeast gene YKL193C) was 1.2, the “The level of expressed mRNA in the presence of chemical substance/The level of expressed mRNA in the absence of chemical substance” value (yeast gene YKL196C) was 2.5 and the “The level of expressed mRNA in the presence of chemical substance/The level of expressed mRNA in the absence of chemical substance” value (yeast gene YKR014C) was 1.8. For the same compound, the “The level of expressed mRNA in the presence of chemical substance/The level of expressed mRNA in the absence of chemical substance” value (yeast gene YKR098C) was 1.4, the “The level of expressed mRNA in the presence of chemical substance/The level of expressed mRNA in the absence of chemical substance” value (yeast gene YLR093C) was 1.3 and the “The level of expressed mRNA in the presence of chemical substance/The level of expressed mRNA in the absence of chemical substance” value (yeast gene YLR107W) was 1.6. The “The level of expressed mRNA in the presence of chemical substance/The level of expressed mRNA in the absence of chemical substance” value (yeast gene YLR118C) was 1.5, the “The level of expressed mRNA in the presence of chemical substance/The level of expressed mRNA in the absence of chemical substance” value (yeast gene YLR120C) was 0.8 and the “The level of expressed mRNA in the presence of chemical substance/The level of expressed mRNA in the absence of chemical substance” value (yeast gene YLR136C) was 0.7. The “The level of expressed mRNA in the presence of chemical substance/The level of expressed mRNA in the absence of chemical substance” value (yeast gene YLR178C) was 2.8, the “The level of expressed mRNA in the presence of chemical substance/The level of expressed mRNA in the absence of chemical substance” value (yeast gene YLR250W) was 2.5 and the “The level of expressed mRNA in the presence of chemical substance/The level of expressed mRNA in the absence of chemical substance” value (yeast gene YLR251W) was 1.3. For the same compound, the “The level of expressed mRNA in the presence of chemical substance/The level of expressed mRNA in the absence of chemical substance” value (yeast gene YLR266C) was 1.0, the “The level of expressed mRNA in the presence of chemical substance/The level of expressed mRNA in the absence of chemical substance” value (yeast gene YLR327C) was 1.5 and the “The level of expressed mRNA in the presence of chemical substance/The level of expressed mRNA in the absence of chemical substance” value (yeast gene YLR356W) was 2.2. For the same compound, the “The level of expressed mRNA in the presence of chemical substance/The level of expressed mRNA in the absence of chemical substance” value (yeast gene YLR362W) was 1.2, the “The level of expressed mRNA in the presence of chemical substance/The level of expressed mRNA in the absence of chemical substance” value (yeast gene YLR391W) was 0.5 and the “The level of expressed mRNA in the presence of chemical substance/The level of expressed mRNA in the absence of chemical substance” value (yeast gene YLR429W) was 0.7. For the same compound, the “The level of expressed mRNA in the presence of chemical substance/The level of expressed mRNA in the absence of chemical substance” value (yeast gene YML092C) was 1.6, the “The level of expressed mRNA in the presence of chemical substance/The level of expressed mRNA in the absence of chemical substance” value (yeast gene YMR004W) was 2.2 and the “The level of expressed mRNA in the presence of chemical substance/The level of expressed mRNA in the absence of chemical substance” value (yeast gene YMR027W) was 0.9. For the same compound, the “The level of expressed mRNA in the presence of chemical substance/The level of expressed mRNA in the absence of chemical substance” value (yeast gene YMR091C) was 1.5 and the “The level of expressed mRNA in the presence of chemical substance/The level of expressed mRNA in the absence of chemical substance” value (yeast gene YMR094W) was 2.8.
